Values of other authors as cited in US20170049679A1, “ORAL AND DENTAL HYGIENE AND CLEANING AGENTS FOR REDUCING TOOTH DISCOLORATION” (Henkel AG & Co. KGaA, priority 2014, published 2017).
Like-named read-outs stand apart in the source and are kept apart here.

Zinc acetylacetonate
Solubility (20° C.): 4 mg/mL

[Cl-].[Cl-].[Zn+2] [Zinc chloride]
Solubility (25° C.): 4320 mg/mL

Zinc hydroxycarbonate
Solubility (in words) (20° C.): Nearly insoluble
